According to ChEMBL document CHEMBL1201862, “PubChem BioAssay data set” (2004):
Several values for one entry are separate records, joined by “and”; a condition that tells them apart may be missing. Identical values can stand only once. Activity calls are given as the source filed them.

Legend:
[1] = target: T1, Bcl-2-related protein A1 (Mus musculus, UniProt Q07440); assay: Bfl-1 inhibitors, primary screen, biochemical, fluorescence polarization, FITC-Bid, mouse (AID 432)
T1 sequence (Q07440 whole entry): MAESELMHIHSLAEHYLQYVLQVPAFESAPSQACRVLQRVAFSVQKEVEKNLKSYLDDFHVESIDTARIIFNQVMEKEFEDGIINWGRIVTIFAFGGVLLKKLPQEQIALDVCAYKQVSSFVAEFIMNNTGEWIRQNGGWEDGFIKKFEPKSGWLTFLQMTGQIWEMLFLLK

[2] = target: Glyceraldehyde-3-phosphate dehydrogenase (Homo sapiens, UniProt P04406)
Glyceraldehyde-3-phosphate dehydrogenase, sequence (P04406 whole entry): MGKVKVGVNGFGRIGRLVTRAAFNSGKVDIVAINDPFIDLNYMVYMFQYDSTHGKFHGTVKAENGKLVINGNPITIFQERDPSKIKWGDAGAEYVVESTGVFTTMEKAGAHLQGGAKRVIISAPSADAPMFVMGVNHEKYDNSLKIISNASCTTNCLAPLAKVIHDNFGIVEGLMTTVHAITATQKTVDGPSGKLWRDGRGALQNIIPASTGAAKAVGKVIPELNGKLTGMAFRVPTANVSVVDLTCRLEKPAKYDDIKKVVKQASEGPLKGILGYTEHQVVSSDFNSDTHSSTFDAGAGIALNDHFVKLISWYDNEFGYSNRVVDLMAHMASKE

[3] = target: T1, Bcl-2-related protein A1; assay: Bfl-1 inhibitors blocking BH3 peptide binding, confirmation, biochemical, TR-FRET, mouse Bfl-1 (AID 621);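 also: TR-FRET binding of GST-Bfl-1 to FITC-labelled Bid peptide via terbium antibody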
[4] = target: T1, Bcl-2-related protein A1; assay: Bfl-1 binding inhibitors, SAR follow-up, biochemical, fluorescence polarization (AID 1070)
[5] = Luminescence Cell-Based Dose Retest to Confirm Inhibitors of Cancer Stem Cells. [Related pubchem assays (depositor defined):AID2717, AID2721]; type: functional; conditions: Homo sapiens
[6] = tested on: CHO; assay: cytotoxicity in TLR9-MyD88 CHO cells, dose response, cytotoxicity control for TLR9-MyD88 binding inhibitor project, cell-based, luminescence (AID 588339); type: functional, hamster; conditions: Cricetulus griseus;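 also: CHO cells stably coexpressing TLR9 and MyD88 fusions from primary screen; compound exposure lasted 48 hours before viability readout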
[7] = target: T2, Replicative DNA helicase DnaB (Mycobacterium tuberculosis, UniProt P9WMR3); assay: DnaB intein splicing inhibitors, dose response, biochemical, cell-free fluorescence (AID 449749); type: functional
T2 sequence (P9WMR3 whole entry): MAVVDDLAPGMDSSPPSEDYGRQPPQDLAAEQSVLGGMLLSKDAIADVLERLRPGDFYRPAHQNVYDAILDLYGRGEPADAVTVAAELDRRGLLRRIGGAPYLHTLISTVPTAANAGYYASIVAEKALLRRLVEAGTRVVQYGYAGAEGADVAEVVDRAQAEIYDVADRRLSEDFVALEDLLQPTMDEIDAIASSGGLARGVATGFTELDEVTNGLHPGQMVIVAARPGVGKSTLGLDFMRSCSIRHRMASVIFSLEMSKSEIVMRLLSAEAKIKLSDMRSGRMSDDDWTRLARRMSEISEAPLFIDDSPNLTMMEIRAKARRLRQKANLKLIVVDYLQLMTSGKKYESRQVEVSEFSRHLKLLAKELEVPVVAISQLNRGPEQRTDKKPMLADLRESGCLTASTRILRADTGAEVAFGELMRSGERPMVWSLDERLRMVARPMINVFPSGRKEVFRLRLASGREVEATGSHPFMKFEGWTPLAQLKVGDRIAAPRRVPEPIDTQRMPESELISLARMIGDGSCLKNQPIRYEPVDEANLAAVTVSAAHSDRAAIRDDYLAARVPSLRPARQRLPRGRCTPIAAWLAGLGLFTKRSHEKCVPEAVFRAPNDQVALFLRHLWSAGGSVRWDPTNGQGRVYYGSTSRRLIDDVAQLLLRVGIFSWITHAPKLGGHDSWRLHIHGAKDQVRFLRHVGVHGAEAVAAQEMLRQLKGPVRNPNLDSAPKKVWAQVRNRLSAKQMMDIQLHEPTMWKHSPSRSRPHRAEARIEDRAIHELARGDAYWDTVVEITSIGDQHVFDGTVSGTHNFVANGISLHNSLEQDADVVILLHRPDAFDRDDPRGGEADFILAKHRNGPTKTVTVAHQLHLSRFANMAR

[8] = target: T3, Protein RecA (Mycobacterium tuberculosis, UniProt P9WHJ3); assay: Fluorescence Cell-Free Homogeneous Dose Retest to Identify Inhibitors of RecA-Intein Splicing Activity. [Related pubchem assays (depositor defined):AID2097, AID2223, AID489010, AID492950]; type: functional
T3 sequence (P9WHJ3 whole entry): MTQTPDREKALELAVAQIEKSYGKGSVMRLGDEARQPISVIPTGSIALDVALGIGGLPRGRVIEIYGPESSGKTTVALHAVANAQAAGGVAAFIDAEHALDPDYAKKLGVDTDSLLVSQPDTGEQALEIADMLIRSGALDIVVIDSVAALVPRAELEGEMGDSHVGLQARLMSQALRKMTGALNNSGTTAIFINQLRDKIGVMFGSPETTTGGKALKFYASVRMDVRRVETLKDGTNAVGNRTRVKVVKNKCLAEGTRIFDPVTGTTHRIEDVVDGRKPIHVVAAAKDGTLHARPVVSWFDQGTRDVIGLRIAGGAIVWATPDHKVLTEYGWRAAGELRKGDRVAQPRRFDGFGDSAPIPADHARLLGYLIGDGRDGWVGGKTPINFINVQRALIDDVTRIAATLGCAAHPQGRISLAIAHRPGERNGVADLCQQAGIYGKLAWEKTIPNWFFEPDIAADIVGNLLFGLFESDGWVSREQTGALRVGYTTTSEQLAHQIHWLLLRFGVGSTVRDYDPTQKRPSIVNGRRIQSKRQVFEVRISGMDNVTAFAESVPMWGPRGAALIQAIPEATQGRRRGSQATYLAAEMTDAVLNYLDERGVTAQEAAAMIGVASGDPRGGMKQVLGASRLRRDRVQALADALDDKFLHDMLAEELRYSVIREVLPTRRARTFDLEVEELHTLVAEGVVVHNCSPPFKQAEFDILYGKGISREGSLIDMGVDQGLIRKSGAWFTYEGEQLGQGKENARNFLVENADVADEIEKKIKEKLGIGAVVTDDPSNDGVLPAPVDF

[9] = target: Beta Lactamase (Pseudomonas aeruginosa, UniProt Q932Y6); assay: beta-lactamase reporter inhibitor potency, dose response, artefact control for TLR9-MyD88 binding inhibitor project, BLA reporter cells, FRET fluorescence (AID 588341); type: cell-based;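 also: cell based assay in CHO-K1 cells stably expressing beta-lactamase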
Beta Lactamase, sequence (Q932Y6 whole entry): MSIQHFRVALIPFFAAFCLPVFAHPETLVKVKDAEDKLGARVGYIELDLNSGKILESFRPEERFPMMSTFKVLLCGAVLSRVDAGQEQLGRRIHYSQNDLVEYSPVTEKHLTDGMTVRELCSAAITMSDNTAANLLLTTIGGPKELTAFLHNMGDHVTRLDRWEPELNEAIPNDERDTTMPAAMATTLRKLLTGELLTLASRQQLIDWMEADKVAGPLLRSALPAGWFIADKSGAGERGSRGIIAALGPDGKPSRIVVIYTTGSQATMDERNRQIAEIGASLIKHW

[10] = tested on: INS1; assay: beta cell apoptosis inhibitors, cytokine rescue, dose response, luminescence, retest (AID 449756); type: functional, cell-based; conditions: Rattus norvegicus;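 also: cell death triggered by IL-1 beta plus TNF-alpha plus IFN-gamma mixture; protective hits raise ATP signal compared with cytokine alone wells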
[11] = Shn3 3'UTR reporter inhibitors, dose response, cell-based, Clone20 osteoblasts, firefly luciferase, cherry-picked (AID 624132); type: functional;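 also: firefly luciferase luminescence from reporter carrying the Shn3 3'UTR in osteoblasts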
[12] = HepG2 cell cytotoxicity, dose response, cytotoxicity control for Shn3 inhibitor project, CellTiter-Glo, cherry-picked (AID 624134); type: functional, cell-based
[13] = control 3'UTR Renilla luciferase suppression, dose response, counter-screen for Shn3 inhibitor project, cell-based, Clone20-Shn3RL, cherry-picked (AID 624133); type: functional
[14] = inhibitors of PGC1a acetylation in cells, dose response, cell-based, cherry-picked samples (AID 720514); type: functional;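 also: potency may reflect raised or lowered acetylation signal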
[15] = tested on: Danio rerio; assay: In Vivo Angiogenesis Dose-Response Confirmation. [Related pubchem assays: 732 (Assay preceding this confirmatory assay.)]; type: functional, organism-based
[16] = target: T4, NADPH oxidase 1 (Homo sapiens, UniProt Q9Y5S8); assay: Late stage results from the probe development effort to identify inhibitors of NOX1: HEK/293 IC50. [Related pubchem assays: 1796 (Summary AID (NOX1)), 2752 (Primary screen (NOX1 inhibitors, synthesized analogs set 2)), 2664 (Primary screen (NOX1 inhibitors, synthesized analogs)), 1792 (Primary Screen (NOX1)), 2545 (Confirmation screen (NOX1 …; type: functional
T4 sequence (Q9Y5S8 whole entry): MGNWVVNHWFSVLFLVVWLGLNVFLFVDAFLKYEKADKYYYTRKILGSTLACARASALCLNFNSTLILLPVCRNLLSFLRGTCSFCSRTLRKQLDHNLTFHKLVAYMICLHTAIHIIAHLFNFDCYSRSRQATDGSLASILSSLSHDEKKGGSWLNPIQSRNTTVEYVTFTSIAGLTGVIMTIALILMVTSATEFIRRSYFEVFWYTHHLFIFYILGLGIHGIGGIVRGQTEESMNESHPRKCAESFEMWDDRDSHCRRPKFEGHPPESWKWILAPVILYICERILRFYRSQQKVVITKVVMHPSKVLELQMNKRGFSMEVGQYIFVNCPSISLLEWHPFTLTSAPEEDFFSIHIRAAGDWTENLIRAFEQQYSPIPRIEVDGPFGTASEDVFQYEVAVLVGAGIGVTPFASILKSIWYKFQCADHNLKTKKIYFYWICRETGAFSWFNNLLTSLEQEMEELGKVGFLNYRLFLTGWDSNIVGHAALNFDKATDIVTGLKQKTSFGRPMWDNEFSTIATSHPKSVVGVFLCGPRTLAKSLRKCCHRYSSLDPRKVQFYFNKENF

[17] = target: T4, NADPH oxidase 1; assay: NOX1 inhibitors, concentration-response, dose response, cell-based, luminescence, cherry picks 2 (AID 434997); type: functional
[18] = tested on: Vero; assay: host cell cytotoxicity of antiviral hits, dose response, cytotoxicity control for West Nile virus antiviral project, secondary assay (AID 1650); type: functional; conditions: Chlorocebus sabaeus
[19] = M. tuberculosis growth inhibition, HTS (AID 449762); type: functional
[20] = microbe, parasite or virus in culture; type: functional; conditions: Mycobacterium tuberculosis

## CCOC(=O)CS(=O)(=O)c1nc(-c2ccccc2)cc(C(F)(F)F)n1
[1]
  IC50: 3.72 µM (active)
[2]
  IC50: > 100 µM (not active)
[3]
  IC50: 4.63 µM (active) and 1.18 µM (active)
[4]
  IC50: 5.36 µM (active)
[5]
  AC50: 2.77 µM (active)
[6]
  IC50: 4.43 µM (active)
[7]
  AC50: 2.9 µM (active)
[8]
  EC50: 4.15 µM (active)
[9]
  IC50: 19.2 µM (inactive)
[10]
  AC50: 7.22 µM (active)
[11]
  AC50: 3.42 µM (active)
[12]
  AC50: 12.9 µM (active)
[13]
  AC50: 6.93 µM (active)
[14]
  AC50: 6.64 µM (active)

## Cc1cccc2c1NC(=O)/C2=C1\Nc2ccccc2C1=O
[15]
  IC50: 1.23 µM (active)

## CN(C)c1ccc(NC(=O)Nc2ccc(OCc3ccccc3)cc2)cc1
[16]
  IC50: 2.37 µM (active)
[17]
  IC50: 0.23 µM (active)

## CC(C)n1nc(C(=O)Nc2cccc(S(=O)(=O)NCc3ccco3)c2)c2ccccc2c1=O
[18]
  CC50: 3.81 µM (active)

## CCOc1cc(/C=N\NC(=O)Cn2nc([N+](=O)[O-])cc2C)ccc1OCc1cccc2ccccc12
[19]
  IC50: > 100 µM (active)
[20]
  CC50: > 40 µM (active)
